Data taken from ChEMBL document CHEMBL5357064 (ACS Med Chem Lett, 2024).

Tests used:
[1] = target: T1, Small conductance calcium-activated potassium channel protein 2 (Homo sapiens, UniProt Q9H2S1); assay: Displacement of [125I]apamin from SK2 (unknown origin) expressed in HEK293 cells assessed as inhibition constant incubated for 1 hr by liquid scintillation counting analysis; assay type: cell-based
[2] = target: Small conductance calcium-activated potassium channel protein 3 (Homo sapiens, UniProt Q9UGI6); assay: Displacement of [125I]apamin from human SK3 expressed in HEK293 cells assessed as inhibition constant incubated for 1 hr by liquid scintillation counting analysis; assay type: cell-based
[3] = target: T1, Small conductance calcium-activated potassium channel protein 2; assay: Displacement of [125I]apamin from human SK2 expressed in HEK293 cells assessed as inhibition constant incubated for 1 hr by liquid scintillation counting analysis; assay type: cell-based
Homo sapiens = species: Homo sapiens; assay: Selectivity ratio of Ki for human SK3 to Ki for human SK2

T1 sequence (Q9H2S1 whole entry): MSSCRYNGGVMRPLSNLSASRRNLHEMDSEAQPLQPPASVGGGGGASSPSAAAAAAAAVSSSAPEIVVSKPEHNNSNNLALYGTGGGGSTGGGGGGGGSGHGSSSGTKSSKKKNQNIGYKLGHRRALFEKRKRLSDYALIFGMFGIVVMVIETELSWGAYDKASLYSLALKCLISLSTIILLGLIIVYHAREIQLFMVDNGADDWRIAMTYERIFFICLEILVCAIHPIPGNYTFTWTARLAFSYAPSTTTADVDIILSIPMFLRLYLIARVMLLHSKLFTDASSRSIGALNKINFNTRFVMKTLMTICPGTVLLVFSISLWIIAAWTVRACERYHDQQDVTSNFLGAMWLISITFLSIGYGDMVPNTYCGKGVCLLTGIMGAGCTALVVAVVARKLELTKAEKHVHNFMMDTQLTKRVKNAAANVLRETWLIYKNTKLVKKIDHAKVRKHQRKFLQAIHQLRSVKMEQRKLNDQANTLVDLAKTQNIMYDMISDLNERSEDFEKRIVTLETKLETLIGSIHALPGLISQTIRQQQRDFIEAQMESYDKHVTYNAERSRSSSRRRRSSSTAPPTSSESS
Chain of Small conductance calcium-activated potassium channel protein 3 (Q9UGI6 whole entry): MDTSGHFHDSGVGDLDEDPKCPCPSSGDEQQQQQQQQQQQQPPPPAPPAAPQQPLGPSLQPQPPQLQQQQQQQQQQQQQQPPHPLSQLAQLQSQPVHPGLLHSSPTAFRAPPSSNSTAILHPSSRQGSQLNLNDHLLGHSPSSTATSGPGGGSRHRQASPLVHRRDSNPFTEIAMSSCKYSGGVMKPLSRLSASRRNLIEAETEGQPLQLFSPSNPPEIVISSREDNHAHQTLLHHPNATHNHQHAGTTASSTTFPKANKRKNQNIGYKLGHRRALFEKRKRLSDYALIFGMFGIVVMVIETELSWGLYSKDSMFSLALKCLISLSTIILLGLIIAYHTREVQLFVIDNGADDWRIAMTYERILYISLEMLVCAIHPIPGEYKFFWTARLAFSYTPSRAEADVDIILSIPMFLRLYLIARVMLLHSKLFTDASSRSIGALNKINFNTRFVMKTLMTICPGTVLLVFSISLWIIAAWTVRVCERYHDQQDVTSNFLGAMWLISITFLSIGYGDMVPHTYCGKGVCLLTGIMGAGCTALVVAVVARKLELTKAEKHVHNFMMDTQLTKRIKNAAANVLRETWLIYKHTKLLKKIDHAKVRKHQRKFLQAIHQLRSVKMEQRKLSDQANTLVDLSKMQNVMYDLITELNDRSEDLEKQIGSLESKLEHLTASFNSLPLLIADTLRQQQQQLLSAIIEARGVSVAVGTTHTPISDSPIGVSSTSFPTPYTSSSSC

## COc1cc2c(cc1OC)[C@H](CCC[C@H]1c3cc(OC)c(OC)cc3CCN1C)N(C)CC2
[1]
  Ki: 277 nM

## COc1cc2c3cc1Oc1c(OC)c(OC)cc4c1[C@@H](Cc1ccc(O)c(c1)Oc1ccc(cc1)C[C@@H]3N(C)CC2)N(C)CC4 [BERBAMINE]
[2]
  Ki: 679 nM
[3]
  Ki: 284 nM
Homo sapiens
  Ratio Ki: 2.17
